What is called Km is the substrate concentration at which the rate is half of its maximum.

What all share (assay type): biochemical
Assay [1] deals with T1, MroAPO (Marasmius rotula aromatic peroxygenase).
T1 construct: native secreted heme-thiolate enzyme purified by FPLC from culture liquid of wild-type fungus
Kind of assay: spectrophotometric initial rates, ABTS cation radical at […] nm; Lineweaver-Burk. The settings on record: 2 mM H2O2, sodium phosphate/citrate buffer pH 4.5, 25°C.

Assay [2] has the same test system. Kind of assay: spectrophotometric initial rates, dimeric DMP quinone at […] nm; Lineweaver-Burk. To be noted: 2 mM H2O2, sodium phosphate/citrate buffer pH 5.5, 25°C.
Assay [3] has the same test system. Description: spectrophotometric initial rates, 1-naphthol at […] nm; Lineweaver-Burk. To be noted: H2O2 co-substrate (table note 2 mM; methods give start with 20 μl H2O2 (200 μM)), sodium phosphate/citrate buffer pH 5.5, acetonitrile as substrate solvent, 25°C.
Assay [4] shares this test system. Kind of assay: spectrophotometric initial rates, veratraldehyde at […] nm; Lineweaver-Burk. The settings on record: 2 mM H2O2, sodium phosphate/citrate buffer pH 5.5, 25°C.

SMILES strings stand for the structures.

Turning to `CCn1c(=NN=c2sc3cc(S(=O)(=O)O)ccc3n2CC)sc2cc(S(=O)(=O)O)ccc21` [ABTS], the Km in assay [1] was found to be 71 µM.
`COc1cccc(OC)c1O` [DMP]: the Km in assay [2] was 133 µM.
In the case of `c1ccc2ccccc2c1` [Naphthalene], the Km in assay [3] is 791 µM.
Regarding `COc1ccc(CO)cc1OC` [Veratryl alcohol], the Km in assay [4] was 279 µM.

These data come from article PMC3214178, “High-yield production of aromatic peroxygenase by the agaric fungus Marasmius rotula” (AMB Express, 2011).
